Test [1] relates to Staphylococcus aureus ATCC 29213. The experiment in a line: MIC, broth microdilution, S. aureus ATCC 29213 (QC strain). To be noted: ATCC29213, read-out: minimum inhibitory concentration (MIC). The format is cell-based. As for the experimental part: (§1) Antimicrobial Effect: Minimum Inhibitory Concentration (MIC) of a Test Compound Against Isolates of Staphylococcus aureus. The Minimum inhibitory concentration (MIC) of compounds of the presently-disclosed subject matter including a bone active portion (RA) derived from an antimicrobial agent, and free antimicrobial agents, were determined by Ricerca Biosciences LLC (Concord, Ohio) using the standard in vitro broth microdilution assay (CLSI). Two isolates of S. aureus, one resistant to Methicillin (ATCC 33591) and one nonresistant to Methicillin (ATCC 49230) were used for the evaluation. ATCC 49230 is a clinical isolate from a patient with chronic osteomyelitis. Additionally, a quality control isolate (ATCC 29213) was included in the analysis. Briefly, twelve, serial, one-half dilutions of compounds of the presently-disclosed subject matter including a bone active portion (RA) derived from an antimicrobial agent, and free antimicrobial agents, were prepared in 96-well plates in Mueller Hinton Broth (MHB). The highest concentration of each compound used was 64 μg/mL. Bacterial suspensions were prepared and added to each well at a concentration of approximately 5×10^5 colony-forming-units per milliliter. The inoculated plates were incubated for 16-20 h at 35±1° C. At the completion of incubation, the wells of each plate were evaluated visually for the presence of bacterial growth. […]

The test system of test [2] is Staphylococcus aureus ATCC 49230. The test can be described thus: MIC, broth microdilution, S. aureus ATCC 49230. The format is cell-based. Particulars: ATCC49230, read-out: minimum inhibitory concentration (MIC). The protocol:
as §1
On the technique in general: Broth dilution looks for growth in wells or tubes with falling amounts of substance.

Test [3] concerns Staphylococcus aureus ATCC 29213. Particulars: ATCC 29213, QC strain, acceptance range; cited from earlier work.
In test [4] the test system is Staphylococcus aureus ATCC 33591. The test can be described thus: MIC, broth microdilution, S. aureus ATCC 33591 (MRSA). The format is cell-based. Particulars: read-out: minimum inhibitory concentration (MIC). As for the experimental part:
as §1

Molecules are shown by their SMILES. In brackets after ≈: the same amount, converted by molar mass.

Regarding `CN[C@H](CC(C)C)C(=O)N[C@H]1C(=O)N[C@@H](CC(N)=O)C(=O)N[C@H]2C(=O)N[C@H]3C(=O)N[C@H](C(=O)N[C@H](C(=O)O)c4cc(O)cc(O)c4-c4cc3ccc4O)[C@H](O)c3ccc(c(Cl)c3)Oc3cc2cc(c3O[C@@H]2O[C@H](CO)[C@@H](O)[C@H](O)[C@H]2O[C@H]2C[C@](C)(N)[C@H](O)[C@H](C)O2)Oc2ccc(cc2Cl)[C@H]1O` [vancomycin], the MIC in test [1], in test [2] and in test [4] was 1 µg/mL (≈ 0.69 µM) throughout. Moreover, in test [3], the “acceptable vancomycin MIC range” value was “^cQC strain: Acceptable vancomycin MIC range: 0.5-2 μg/mL”.

(Values after patent publication US8071575B2, “Methods and compounds for the targeted delivery of agents to bone for interaction therewith” (priority 2007, dated 2011).)
